Results on eleven compounds are retold here after ChEMBL document CHEMBL1201862, “PubChem BioAssay data set” (2004).

Among the test systems are SNB-78; EKVX; OVCAR-5; HCC 2998; M14; MOLT-4; OVCAR-3; A549; 786-0; SF-268; HCT-15; SK-OV-3; UO-31; SN12C; RXF 393.
Holding throughout (assay): NCI anticancer screen, dose series, 48 h

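Assay format: 96-well plates, 48-hour exposure. GI50 marks 50% less growth.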 Calls of active or inactive are those of the source. No stated cut-off is given here; in the data, active = GI50 up to about 1.1 µM and inactive = higher.

Take `COc1ccc2c3c([nH]c2c1[N+](=O)[O-])C(C)N(C)CC3` (centres undefined): the GI50 was > 100 µM (inactive) in the assay on SNB-78; > 100 µM (inactive) in the assay on EKVX; > 100 µM (inactive) with OVCAR-5; > 100 µM (inactive) with HCC 2998; > 100 µM (inactive) with M14; 51.6 µM (inactive) in the assay with MOLT-4. Further, the GI50 was > 100 µM (inactive) in the assay with OVCAR-3; > 100 µM (inactive) in the assay on A549; > 100 µM (inactive) in the assay with 786-0; > 10 µM (inactive) with SF-268; 80.4 µM in the assay on HCT-15; > 100 µM (inactive) in the assay on SK-OV-3. Moreover, the figures for the GI50 with UO-31 and in the assay on SN12C were 76.2 µM (inactive) and > 100 µM (inactive), respectively.

On to `COc1nc(NC2OCC(OC(C)=O)C(OC(C)=O)C2OC(C)=O)c(-c2csc(N)n2)c(=O)n1C` (centres undefined), for which the GI50 in the assay with SNB-78, with OVCAR-5, in the assay on M14, in the assay on MOLT-4, in the assay with OVCAR-3 and in the assay with A549 was > 100 µM (inactive) each time. Also, the GI50 with 786-0 was > 100 µM (inactive); in the assay on SF-268, > 100 µM (inactive); with HCT-15, > 100 µM; with SK-OV-3, > 100 µM (inactive); in the assay with UO-31, > 100 µM (inactive); with SN12C, > 100 µM (inactive).

For `COC(=O)[C@@]12C(=O)C=CC(=O)C1C1C(=CC2C)OC2OC3(CCCCC3)OC21` (some centres undefined), the GI50 is 20.6 µM (inactive) with SNB-78; 19.7 µM (inactive) with EKVX; 14.3 µM (inactive) in the assay with OVCAR-5; 14.5 µM (inactive) in the assay with HCC 2998; 17.8 µM (inactive) in the assay with M14; 6.11 µM (inactive) in the assay on MOLT-4. For the same compound, the GI50 in the assay on OVCAR-3 was 19.6 µM (inactive); with A549, 19.3 µM (inactive); with 786-0, 17.5 µM (inactive); with SF-268 it was 20.9 µM (inactive); in the assay on HCT-15, 13.2 µM; in the assay on SK-OV-3, 18.6 µM (inactive). The figures for the GI50 in the assay on UO-31 and with SN12C were 16.8 µM (inactive) and 17.7 µM (inactive), respectively.

Consider `O=C(O)c1c2c(c(C(=O)O)c3ccccc13)-c1ccccc1-2`, for which the GI50 is 71.1 µM (inactive) in the assay on SNB-78; 31.4 µM (inactive) in the assay with EKVX; > 100 µM (inactive) with OVCAR-5; 37.1 µM (inactive) with HCC 2998; 47.5 µM (inactive) in the assay with M14; 39.5 µM (inactive) in the assay with MOLT-4. The GI50 with OVCAR-3 was 27.5 µM (inactive); with A549 it was 36 µM (inactive); in the assay on 786-0 it was 36.8 µM (inactive); with RXF 393 it was 21.9 µM (inactive); in the assay on SF-268, 31.9 µM (inactive); in the assay with SK-OV-3 it was 27.8 µM (inactive). For the same compound, the GI50 in the assay on UO-31 is 28.1 µM (inactive); in the assay with SN12C it was 35.1 µM (inactive).

As for `O=C(N/C(=C\c1ccc(/C=C(\NC(=O)c2ccccc2)c2nc3cc(Cl)ccc3[nH]2)cc1)c1nc2cc(Cl)ccc2[nH]1)c1ccccc1`, the GI50 in the assay on SNB-78 is > 100 µM (inactive); with EKVX, 29 µM (inactive); in the assay on OVCAR-5, > 100 µM (inactive); with M14, 26.9 µM (inactive); in the assay with MOLT-4 it was 3.89 µM (inactive); in the assay on OVCAR-3 it was 22.4 µM (inactive). Further, the GI50 in the assay on A549 is 24.9 µM (inactive); in the assay with 786-0, 25.6 µM (inactive); in the assay on RXF 393, 13.4 µM (inactive); with SF-268 it was 11.8 µM (inactive); in the assay on HCT-15, 21.4 µM; in the assay with SK-OV-3 it was > 100 µM (inactive). Further, the values for the GI50 in the assay with UO-31 and with SN12C were 25.2 µM (inactive) and 30.1 µM (inactive), respectively.

As to `COc1cc2c(cc1OC)[Se]c1cc(OC)c(OC)cc1[Se]2`, the GI50 is > 10 µM (inactive) in the assay with SNB-78; > 10 µM (inactive) in the assay on EKVX; > 10 µM (inactive) in the assay on OVCAR-5; > 10 µM (inactive) with M14; > 100 µM (inactive) with MOLT-4; > 10 µM (inactive) in the assay with OVCAR-3. Moreover, the GI50 with A549 was > 10 µM (inactive); with 786-0, > 10 µM (inactive); in the assay with RXF 393, 15.1 µM (inactive); in the assay with SF-268 it was > 10 µM (inactive); in the assay with HCT-15, 5.3 µM; in the assay with SK-OV-3, > 10 µM (inactive). Also, the GI50 in the assay on UO-31 and in the assay with SN12C was > 10 µM (inactive) throughout.

For the compound `O=C(CO)C1CC2C=CC1C2` (centres undefined), the GI50 with SNB-78, with EKVX, in the assay with OVCAR-5, in the assay with M14, with MOLT-4 and with OVCAR-3 was > 100 µM (inactive) each time. Besides, the GI50 is > 100 µM (inactive) with A549; > 100 µM (inactive) with 786-0; > 100 µM (inactive) with RXF 393; > 100 µM (inactive) in the assay on SF-268; > 100 µM in the assay with HCT-15; > 100 µM (inactive) with SK-OV-3. Moreover, the GI50 in the assay with UO-31 and in the assay with SN12C was > 100 µM (inactive) in each case.

As to `O=[N+]([O-])[C@@H]1C2C=CC(C2)[C@H]1Cl` (some centres undefined), the GI50 in the assay on SNB-78, in the assay on EKVX, in the assay with OVCAR-5, with M14, in the assay on MOLT-4 and with OVCAR-3 was > 100 µM (inactive) throughout. Also, the GI50 with A549 is > 100 µM (inactive); with 786-0, > 100 µM (inactive); with RXF 393 it was > 100 µM (inactive); with SF-268, > 100 µM (inactive); in the assay with HCT-15 it was > 100 µM; in the assay with SK-OV-3, > 100 µM (inactive). Moreover, the GI50 in the assay with UO-31 and with SN12C was > 100 µM (inactive) in each case.

As to `CCN(CC)C(=O)C/C(C)=N/NC(=O)c1ccncc1`, the GI50 in the assay with SNB-78, in the assay with EKVX, with OVCAR-5, in the assay with HCC 2998, in the assay with M14 and with MOLT-4 was > 100 µM (inactive) in each case. For the same compound, the GI50 with OVCAR-3, with A549, in the assay with 786-0, with RXF 393, in the assay on SF-268 and with SK-OV-3 was > 100 µM (inactive) each time. Besides, in the assay with UO-31, the GI50 was > 100 µM (inactive).

As to `CC1=CC(=O)c2c(C=O)c(O)c(O)c(C(C)C)c2C1=O`, the GI50 with SNB-78 is 45.9 µM (inactive); in the assay with OVCAR-5 it was 35.5 µM (inactive); with HCC 2998, 29.3 µM (inactive); in the assay with M14, 31.3 µM (inactive); in the assay with MOLT-4 it was 21.2 µM (inactive); in the assay with 786-0, 19.8 µM (inactive). Moreover, the GI50 is 14 µM (inactive) in the assay with RXF 393; 20.9 µM (inactive) with SF-268; 26.2 µM in the assay with HCT-15; 34.5 µM (inactive) in the assay with SK-OV-3; 22 µM (inactive) in the assay on UO-31; 35.1 µM (inactive) with SN12C.

As to `c1ccc2c(c1)OCCOCCOc1ccccc1OCCO2`, the GI50 in the assay on SNB-78 was > 100 µM (inactive); with EKVX it was 75 µM (inactive); in the assay on OVCAR-5 it was 77.3 µM (inactive); in the assay with M14, 44.9 µM (inactive); in the assay on MOLT-4, 47.5 µM (inactive); in the assay with OVCAR-3, 28.2 µM (inactive). The GI50 was 71 µM (inactive) in the assay on A549; 86.9 µM (inactive) in the assay with 786-0; 60.1 µM (inactive) in the assay with RXF 393; > 100 µM (inactive) with SF-268; 43.9 µM in the assay on HCT-15; > 100 µM (inactive) in the assay on SK-OV-3. Also, the GI50 in the assay on UO-31 was 30 µM (inactive); in the assay with SN12C it was 76 µM (inactive).
